Results taken from patent US20090246276A1, “Pharmaceutical Compositions” (priority 2008, published 2009).
Counter-ions that a name gives are not always drawn.

Experiments:
[1] = Solubility (37° C.) in 0.1N HCl, pH 4.5, pH 6.8; type: physicochemical; design: Solubility (37° C.): unit not given here; details: hydrobromide
[2] = In-vitro dissolution, 900 ml medium (0.1N HCl, pH 4.5 acetate buffer, pH 6.8 or pH 7.5 phosphate buffer), USP Apparatus 1, 75 rpm, 37° C.; type: physicochemical
Procedure: The dissolution profile of the above pharmaceutical composition was determined under the dissolution conditions described below in Tables 1A, 1B, and 1C.

CC(NC(C)(C)C)C(=O)c1cccc(Cl)c1 (stereo not shown) [Bupropion HBr, bupropion hydrobromide]
Solubility (37° C.) ([1]; 0.1N HCl): 190 | Solubility (37° C.) ([1]; pH 4.5): 180 | Solubility (37° C.) ([1]; pH 6.8): 200 | % Released ([2]; Example 1 tablet, 0.1N HCl, 1 hr): 12% | % Released ([2]; Example 1 tablet, 0.1N HCl, 2 hr): 29% | % Released ([2]; Example 1 tablet, 0.1N HCl, 3 hr): 45% | % Released ([2]; Example 1 tablet, 0.1N HCl, 4 hr): 59% | % Released ([2]; Example 1 tablet, 0.1N HCl, 5 hr): 73% | % Released ([2]; Example 1 tablet, 0.1N HCl, 6 hr): 84% | % Released ([2]; Example 1 tablet, 0.1N HCl, 7 hr): 93% | % Released ([2]; Example 1 tablet, 0.1N HCl, 8 hr): 100% | % Released ([2]; Example 1 tablet, 0.1N HCl, 9 hr): 103% | % Released ([2]; Example 1 tablet, 0.1N HCl, 10 hr): 104% | % Released ([2]; Example 1 tablet, 0.1N HCl, 11 hr): 104% | % Released ([2]; Example 1 tablet, 0.1N HCl, 12 hr): 104% | % Released ([2]; Example 1 tablet, 0.1N HCl, 13 hr): 103% | % Released ([2]; Example 1 tablet, 0.1N HCl, 14 hr): 103% | % Released ([2]; Example 1 tablet, pH 4.5 acetate buffer, 1 hr): 12% | % Released ([2]; Example 1 tablet, pH 4.5 acetate buffer, 2 hr): 28% | % Released ([2]; Example 1 tablet, pH 4.5 acetate buffer, 3 hr): 43% | % Released ([2]; Example 1 tablet, pH 4.5 acetate buffer, 4 hr): 57% | % Released ([2]; Example 1 tablet, pH 4.5 acetate buffer, 5 hr): 70% | % Released ([2]; Example 1 tablet, pH 4.5 acetate buffer, 6 hr): 81% | % Released ([2]; Example 1 tablet, pH 4.5 acetate buffer, 7 hr): 91% | % Released ([2]; Example 1 tablet, pH 4.5 acetate buffer, 8 hr): 98% | % Released ([2]; Example 1 tablet, pH 4.5 acetate buffer, 9 hr): 103% | % Released ([2]; Example 1 tablet, pH 4.5 acetate buffer, 10 hr): 105% | % Released ([2]; Example 1 tablet, pH 4.5 acetate buffer, 11 hr): 106% | % Released ([2]; Example 1 tablet, pH 4.5 acetate buffer, 12 hr): 106% | % Released ([2]; Example 1 tablet, pH 4.5 acetate buffer, 13 hr): 106% | % Released ([2]; Example 1 tablet, pH 4.5 acetate buffer, 14 hr): 106% | % Released ([2]; Example 1 tablet, pH 4.5 acetate buffer, 15 hr): 105% | % Released ([2]; Example 1 tablet, pH 4.5 acetate buffer, 16 hr): 105% | % Released ([2]; Example 1 tablet, pH 6.8 phosphate buffer, 1 hr): 12% | % Released ([2]; Example 1 tablet, pH 6.8 phosphate buffer, 2 hr): 27% | % Released ([2]; Example 1 tablet, pH 6.8 phosphate buffer, 3 hr): 42% | % Released ([2]; Example 1 tablet, pH 6.8 phosphate buffer, 4 hr): 56% | % Released ([2]; Example 1 tablet, pH 6.8 phosphate buffer, 5 hr): 69% | % Released ([2]; Example 1 tablet, pH 6.8 phosphate buffer, 6 hr): 80% | % Released ([2]; Example 1 tablet, pH 6.8 phosphate buffer, 7 hr): 88% | % Released ([2]; Example 1 tablet, pH 6.8 phosphate buffer, 8 hr): 95% | % Released ([2]; Example 1 tablet, pH 6.8 phosphate buffer, 9 hr): 98% | % Released ([2]; Example 1 tablet, pH 6.8 phosphate buffer, 10 hr): 100% | % Released ([2]; Example 1 tablet, pH 6.8 phosphate buffer, 11 hr): 100% | % Released ([2]; Example 1 tablet, pH 6.8 phosphate buffer, 12 hr): 100% | % Released ([2]; Example 1 tablet, pH 6.8 phosphate buffer, 13 hr): 101% | % Released ([2]; Example 1 tablet, pH 6.8 phosphate buffer, 14 hr): 100% | % Released ([2]; Example 1 tablet, pH 6.8 phosphate buffer, 15 hr): 99% | % Released ([2]; Example 1 tablet, pH 6.8 phosphate buffer, 16 hr): 99% | % Released ([2]; Example 2 tablet, 0.1N HCl, 1 hr): 12% | % Released ([2]; Example 2 tablet, 0.1N HCl, 2 hr): 29% | % Released ([2]; Example 2 tablet, 0.1N HCl, 4 hr): 61% | % Released ([2]; Example 2 tablet, 0.1N HCl, 8 hr): 100% | % Released ([2]; Example 2 tablet, 0.1N HCl, 12 hr): 103% | % Released ([2]; Example 2 tablet, pH 4.5 acetate buffer, 1 hr): 12% | % Released ([2]; Example 2 tablet, pH 4.5 acetate buffer, 2 hr): 28% | % Released ([2]; Example 2 tablet, pH 4.5 acetate buffer, 4 hr): 57% | % Released ([2]; Example 2 tablet, pH 4.5 acetate buffer, 8 hr): 97% | % Released ([2]; Example 2 tablet, pH 4.5 acetate buffer, 16 hr): 101% | % Released ([2]; Example 2 tablet, pH 6.8 phosphate buffer, 1 hr): 11% | % Released ([2]; Example 2 tablet, pH 6.8 phosphate buffer, 2 hr): 27% | % Released ([2]; Example 2 tablet, pH 6.8 phosphate buffer, 4 hr): 55% | % Released ([2]; Example 2 tablet, pH 6.8 phosphate buffer, 8 hr): 94% | % Released ([2]; Example 2 tablet, pH 6.8 phosphate buffer, 12 hr): 97% | % Released ([2]; Example 2 tablet, pH 6.8 phosphate buffer, 16 hr): 96% | % Released ([2]; Example 3 tablet, 0.1N HCl, 1 hr): 13% | % Released ([2]; Example 3 tablet, 0.1N HCl, 2 hr): 31% | % Released ([2]; Example 3 tablet, 0.1N HCl, 4 hr): 62% | % Released ([2]; Example 3 tablet, 0.1N HCl, 12 hr): 104% | % Released ([2]; Example 3 tablet, 0.1N HCl, 16 hr): 103% | % Released ([2]; Example 3 tablet, pH 4.5 acetate buffer, 1 hr): 12% | % Released ([2]; Example 3 tablet, pH 4.5 acetate buffer, 2 hr): 28% | % Released ([2]; Example 3 tablet, pH 4.5 acetate buffer, 4 hr): 58% | % Released ([2]; Example 3 tablet, pH 4.5 acetate buffer, 8 hr): 99% | % Released ([2]; Example 3 tablet, pH 4.5 acetate buffer, 12 hr): 103% | % Released ([2]; Example 3 tablet, pH 6.8 phosphate buffer, 1 hr): 11% | % Released ([2]; Example 3 tablet, pH 6.8 phosphate buffer, 2 hr): 27% | % Released ([2]; Example 3 tablet, pH 6.8 phosphate buffer, 4 hr): 57% | % Released ([2]; Example 3 tablet, pH 6.8 phosphate buffer, 8 hr): 98% | % Released ([2]; Example 3 tablet, pH 6.8 phosphate buffer, 12 hr): 100% | % Released ([2]; Example 3 tablet, pH 6.8 phosphate buffer, 16 hr): 99% | % Released ([2]; Example 4 tablet, 0.1N HCl, 1 hr): 11% | % Released ([2]; Example 4 tablet, 0.1N HCl, 2 hr): 27% | % Released ([2]; Example 4 tablet, 0.1N HCl, 4 hr): 56% | % Released ([2]; Example 4 tablet, 0.1N HCl, 8 hr): 97% | % Released ([2]; Example 4 tablet, 0.1N HCl, 12 hr): 105% | % Released ([2]; Example 4 tablet, 0.1N HCl, 16 hr): 103% | % Released ([2]; Example 5 tablet, 0.1N HCl, 1 hr): 9% | % Released ([2]; Example 5 tablet, 0.1N HCl, 2 hr): 20% | % Released ([2]; Example 5 tablet, 0.1N HCl, 4 hr): 43% | % Released ([2]; Example 5 tablet, 0.1N HCl, 8 hr): 82% | % Released ([2]; Example 5 tablet, 0.1N HCl, 12 hr): 98% | % Released ([2]; Example 5 tablet, 0.1N HCl, 16 hr): 99% | % Released ([2]; Example 6 tablet, 0.1N HCl, 1 hr): 13% | % Released ([2]; Example 6 tablet, 0.1N HCl, 2 hr): 30% | % Released ([2]; Example 6 tablet, 0.1N HCl, 4 hr): 61% | % Released ([2]; Example 6 tablet, 0.1N HCl, 8 hr): 98% | % Released ([2]; Example 6 tablet, 0.1N HCl, 12 hr): 100% | % Released ([2]; Example 6 tablet, 0.1N HCl, 16 hr): 100% | % Released ([2]; Example 7 tablet, 0.1N HCl, 1 hr): 2% | % Released ([2]; Example 7 tablet, 0.1N HCl, 8 hr): 36% | % Released ([2]; Example 7 tablet, 0.1N HCl, 12 hr): 57% | % Released ([2]; Example 7 tablet, 0.1N HCl, 16 hr): 74%
